Source: patent US20250144107A1, “USE OF A PIKFYVE INHIBITOR IN COMBINATION WITH IMMUNOTHERAPY” (The Regents of the University of Michigan, priority 2023, published 2025)

Columns and labels:
cDCs = test: Phenotype of cultured cDCs (flow cytometry, western blot); assay type: cell-based, mice; conditions: DCs in vitro, each agent
Method: FIG. 13G (Left) is a line graph of the relative median fluorescent intensity of the surface MHC-I on DMSO or apilimod-treated cDCs treated for 20 hours after 6 days of culture. FIG. 13G (Right) is a box and whisker plot of the surface MHC-I on DMSO or apilimod-treated cDCs treated for 20 hours after 6 days of culture
FIG. 13H a western blot showing the total vinculin, loading control, and total MHC-I in DMSO or apilimod-treated, 20 hours, cDC lysates after 6 days of culture.
FIG. 13K (Left) is a line graph of the relative median fluorescent intensity of the surface MHC-II on DMSO or apilimod-treated, 20 hours, cDCs treated after 6 days of culture. FIG. 13K (Right) is a box and whisker plot of the surface MHC-II on DMSO or apilimod-treated, 20 hours, cDCs treated after 6 days of culture.
FIG. 13L a western blot showing the total vinculin, loading control, and total MHC-II in DMSO or apilimod-treated, 20 hours, cDC lysates after 6 days of culture.
FIG. 13N a western blot showing the total histone H3, loading control, and total CD80 and CD86 in apilimod-treated, 20 hours, PIKfyve WT vs. KO cDC lysates after 6 days of culture.
FIG. 13P is a series of six scatter plots of surface CD80 and CD86 on DMSO or apilimod-treated cDCs, with or without 20 hours of PolyI:C, 50 μg/ml, or lipopolysaccharide (LPS), 50 ng/ml, treatment after 6 days of culture.
FIG. 13R a western blot showing the total vinculin, loading control, and total CD40 in DMSO or apilimod-treated, 20 hours, cDC lysates treated with or without additional LPS, 50 ng/ml, after 6 days of culture day 6.
FIG. 19B is a line graph of representative density plot of median fluorescent intensity of surface XCR1 in DMSO or apilimod-treated, 20 hours, cDCs after 6 days of culture.
FIG. 26G is a line graph of the relative median fluorescent intensity of the surface MHC-I, H2-kb, H2-kd, on DMSO or apilimod-treated cDCs with or without PolyI:C, 50 μg/ml or LPS, 50 ng/ml, treatment, 20 hours, after 6 days of culture.
FIG. 26H is a line graph of the relative median fluorescent intensity of the surface MHC-II, MHC-IA-IE, on DMSO or apilimod-treated cDCs with or without PolyI:C, 50 μg/ml or LPS, 50 ng/ml, treatment, 20 hours, after 6 days of culture.

B16F10-OVA tumors = test: B16F10-OVA tumor model with PolyI:C adjuvant; assay type: in vivo, mice; conditions: treatment after inoculation, each agent alone
Method: FIG. 16F is a series of four line graphs of the Individual growth curves of subcutaneous B16F10-OVA tumor volume following 21 days of pre-treatment with vehicle versus apilimod, 30 mg/kg daily, with or without subcutaneous injection of water versus PolyI:C, 100 μg on Day 1 and Day 14.
FIG. 16H is a series of four line graphs of the Individual growth curves of subcutaneous B16F10-OVA tumor volume in mice treated with vehicle or apilimod, 30 mg/kg daily, with or without a subcutaneous injection of water versus PolyI:C, 100 μg once weekly.
FIG. 26I is a line graph of the subcutaneous tumor volume of B16F10-OVA tumors following 21 days of pre-treatment with vehicle versus apilimod, 30 mg/kg×5 days/week, with or without subcutaneous injection of water versus PolyI:C, 100 μg on Day 1 and Day 14.
FIG. 26J is a line graph of the subcutaneous tumor volume of B16F10-OVA tumors in mice treated with vehicle or apilimod, 30 mg/kg×5 days/week, with or without subcutaneous injection of water versus PolyI:C, 100 μg once weekly.

KPC1361 cells = test: MHC-I surface expression in Pikfyve-wildtype, Pikfyve-null, Atg5-null or Atg7-null cells; assay type: cell-based, mouse; conditions: Pikfyve-wildtype cells, autophagy inhibition
Excerpt: FIG. 1F (Left) is line graphs of flow cytometry measuring MHC-I surface expression in KPC1361 cells with or without Pikfyve KO, treated with DMSO, Bafilomycin, chloroquine, Apilimod, or ESK981; (Right) is bar graphs of quantification of flow cytometry measuring MHC-I surface expression in KPC1361 cells with or without Pikfyve KO, treated with DMSO, Bafilomycin, chloroquine, Apilimod, or ESK981.
FIG. 1G (Left) is a line graph of flow cytometry measuring MHC-I surface expression in KPC1361 cells with non-targeting single-guide RNA (control), or single-guide RNAs depleting Atg5 or Atg7, treated with DMSO or Apilimod; (Right) is a bar graph of quantification of flow cytometry measuring MHC-I surface expression in KPC1361 cells with non-targeting single-guide RNA (control), or single-guide RNAs depleting Atg5 or Atg7, treated with DMSO or Apilimod.
Cancer cells or the OVA-expressing cancer cells treated in vitro were harvested from dishes, resuspended in buffer MACS (PBS containing 2% FBS and 2 mM EDTA), and stained with Zombie NIR™ Fixable Viability kit (BioLegend: #423106) and fluorophore-conjugated antibody against MHC-I or PE-conjugated antibody against SIINFEKL bound H-2Kb (BioLegend; catalog #141604), respectively. The cells were next washed twice with 1 ml MACS and fixed with 2% paraformaldehyde in PBS for 15 minutes at room temperature. The cells were then subjected to the flow cytometer (SONY SH800S) for measuring surface expression of MHC-I or SIINFEKL bound H-2Kb, respectively. Antibodies used in this study include anti-H-2Kb (BD Biosciences; catalog #553570) and anti-H-2Db (28-14-8; Thermo Fisher Scientific; catalog #12-5999-82) for KPC1361 and B16-F10, anti-H-2Kd (BD Biosciences; catalog #562004) and anti-H-2Dd (BD Biosciences; catalog #553580) for 4T1, anti-H-2Kq (BD Biosciences; catalog #742296) and anti-H-2Dq/H-2Lq (BD Biosciences; catalog #744853) for MyC-CaP, and anti-HLA-A,B,C (clone w6/32; BioLegend; catalog #311406) for human cancer cells.

| Compound | MHC-I and MHC-II expression (cDCs) | tumor growth (B16F10-OVA tumors) | MHC-I surface expression (KPC1361 cells) |
| --- | --- | --- | --- |
| lipopolysaccharide [LPS] | stimulated |  |  |
| PolyI:C | stimulated | modest tumor growth inhibition |  |
| bafilomycin |  |  | induced |
| CCN(CC)CCCC(C)Nc1ccnc2cc(Cl)ccc12 (centres unmarked) [chloroquine] |  |  | induced |
